Results taken from US20080234288A1, “Hcv Inhibiting Sulfonamides” (priority 2003, published 2008).
pEC50: −log10 of the molar value. Counter-ions that a name gives are not always drawn.

Test system: HCV replicon (NS3-NS5B regions of HCV type 1b) in Huh-7 luc/neo cells
Assay: HCV replicon assay, stable replicon cell reporter assay (Huh-Luc, luciferase)
Assay type: cell-based
Conditions: incubation of three days, luciferase activity
Source text: The compounds of the present invention were examined for activity in the inhibition of HCV RNA replication in a cellular assay. […] The cellular assay was based on a bicistronic expression construct, as described by Lohmann et al. (1999) Science vol. 285 pp. 110-113 with modifications described by Krieger et al. (2001) Journal of Virology 75: 4614-4624, in a multi-target screening strategy. In essence, the method is as follows.
The assay utilized the stably transfected cell line Huh-7 luc/neo (hereafter referred to as Huh-Luc; kindly provided by Dr Ralf Bartenschlager, Reblikon GmBh, Germany). This cell line harbors an RNA encoding a bicistronic expression construct comprising the wild type NS3-NS5B regions of HCV type 1b translated from an Internal Ribosome Entry Site (IRES) from encephalomyocarditis virus (EMCV), preceded by a reporter portion (FfL-luciferase), and a selectable marker portion (neo^R, neomycine phosphotransferase). The construct was bordered by 5′ and 3′ NTRs (non-translated regions) from HCV type 1b. Continued culture of the replicon cells in the presence of G418 (neo^R) is dependent on the replication of the HCV RNA. The stably transfected replicon cells that express HCV RNA, which replicates autonomously and to high levels, encoding inter alia luciferase, were used for screening the antiviral compounds.
The replicon cells were plated in 384 well plates in the presence of the test and control compounds which were added in various concentrations. Following an incubation of three days, HCV replication was measured by assaying luciferase activity (using standard luciferase assay substrates and reagents and a Perkin Elmer ViewLux™ ultraHTS microplate imager). Replicon cells in the control cultures have high luciferase expression in the absence of any inhibitor. The inhibitory activity of the compound on luciferase activity was monitored on the Huh-Luc cells, enabling a dose-response curve for each test compound. EC50 values were then calculated, which value represents the amount of the compound required to decrease by 50% the level of detected luciferase activity, or more specifically, the ability of the genetically linked HCV replicon RNA to replicate (Table 1).

Row | Structure (SMILES) | pEC50 (Hepatitis C virus, Huh-7, 72 h) | pEC50
1 | CC(C)CN(CC(O)C(Cc1ccccc1)NC(=O)OCc1cncs1)S(=O)(=O)c1ccc2nc(NC(=O)C3CCCN3C)oc2c1 (centres unmarked) [Compound 11, [1-Benzyl-2-hydroxy-3-(isobutyl-{2-[(1-methyl-pyrrolidine-2-carbonyl)-amino]-benzooxazole-6-sulfonyl}-amino)-propyl]-carbamic acid thiazol-5-ylmethyl ester] | 5.00 to 5.70 | –
2 | CC(C)CN(CC(O)C(Cc1ccccc1)NC(=O)OCc1cncs1)S(=O)(=O)c1ccc2ncn(Cc3ccccc3)c2c1 (centres unmarked) [Compound 12, [1-Benzyl-3-[(3-benzyl-3H-benzoimidazole-5-sulfonyl)-isobutyl-amino]-2-hydroxy-propyl}-carbamic acid thiazol-5-ylmethyl ester] | 5.00 to 5.70 | –
3 | CC(C)CN(CC(O)C(Cc1ccccc1)NC(=O)OCc1cncs1)S(=O)(=O)c1ccc2nc(N)sc2c1 (centres unmarked) [Compound 13, {3-[(2-Amino-benzothiazole-6-sulfonyl)-isobutyl-amino]-1-benzyl-2-hydroxy-propyl}-carbamic acid thiazol-5-ylmethyl ester] | 5.00 to 5.70 | –
4 | CC(C)CN(CC(O)C(Cc1ccccc1)NC(=O)OCc1cncs1)S(=O)(=O)c1ccc2nc(NCCN(C)C)sc2c1 (centres unmarked) [Compound 14, (1-Benzyl-3-{[2-(2-dimethylamino-ethylamino)-benzo-thiazole-6-sulfonyl]-isobutyl-amino}-2-hydroxy-propyl)-carbamic acid thiazol-5-ylmethyl ester] | 5.00 to 5.70 | –
5 | CC(C)CN(CC(O)C(Cc1ccccc1)NC(=O)OCc1cncs1)S(=O)(=O)c1ccc2nc(NCCN3CCCC3)sc2c1 (centres unmarked) [Compound 15, (1-Benzyl-2-hydroxy-3-{isobutyl-[2-(2-pyrrolidin-1-yl-ethyl-amino)-benzothiazole-6-sulfonyl]-amino}-propyl)-carbamic acid thiazol-5-ylmethyl ester] | 5.00 to 5.70 | –
6 | CC(C)CN(CC(O)C(Cc1ccccc1)NC(=O)OCc1cncs1)S(=O)(=O)c1ccc2nc(NCCCN(C)C)sc2c1 (centres unmarked) [Compound 17, (1-Benzyl-3-{[2-(3-dimethylamino-propylamino)-benzo-thiazole-6-sulfonyl]-isobutyl-amino}-2-hydroxy-propyl)-carbamic acid thiazol-5-ylmethyl ester] | 4.49 to 5.00 | –
7 | CC(C)CN(CC(O)C(Cc1ccccc1)NC(=O)OCc1cncs1)S(=O)(=O)c1ccc2nc(NCCN3CCNCC3)sc2c1 (centres unmarked) [Compound 18, (1-Benzyl-2-hydroxy-3-{isobutyl-[2-(2-piperazin-1-yl-ethyl-amino)-benzothiazole-6-sulfonyl]-amino}-propyl)-carbamic acid thiazol-5-ylmethyl ester] | 5.00 to 5.70 | –
8 | CC(C)CN(CC(O)C(Cc1ccccc1)NC(=O)OCc1cncs1)S(=O)(=O)c1ccc2nc(N)oc2c1 (centres unmarked) [Compound 19, {3-[(2-Amino-benzooxazole-6-sulfonyl)-isobutyl-amino]-1-benzyl-2-hydroxy-propyl}-carbamic acid thiazol-5-ylmethyl ester] | – | 5.00 to 5.70
9 | CC(C)CN(CC(O)C(Cc1ccccc1)NC(=O)OCc1cncs1)S(=O)(=O)c1ccc2nc[nH]c2c1 (centres unmarked) [Compound 20, {3-[(3H-Benzoimidazole-5-sulfonyl)-isobutyl-amino]-1-benzyl-2-hydroxy-propyl}-carbamic acid thiazol-5-ylmethyl ester] | 4.49 to 5.00 | –
10 | CC(=O)N(C)c1nc2ccc(S(=O)(=O)N(CC(C)C)CC(O)C(Cc3ccccc3)NC(=O)OCc3cncs3)cc2s1 (centres unmarked) [Compound 21, (3-{[2-(Acetyl-methyl-amino)-benzothiazole-6-sulfonyl]-isobutyl-amino}-1-benzyl-2-hydroxy-propyl)-carbamic acid thiazol-5-ylmethyl ester] | 4.49 to 5.00 | –
11 | Nc1nc2ccc(S(=O)(=O)N(Cc3ccccn3)CC(O)C(Cc3ccccc3)NC(=O)OCc3cncs3)cc2o1 (centres unmarked) [Compound 22, {3-[(2-Amino-benzooxazole-6-sulfonyl)-pyridin-2-ylmethyl-amino]-1-benzyl-2-hydroxy-propyl}-carbamic acid thiazol-5-ylmethyl ester trifluoroacetate salt] | < 4.49 | –
12 | CC(C)CN(CC(O)C(Cc1ccccc1)NC(=O)OCc1cncs1)S(=O)(=O)c1ccc2nc(NC(=O)C3CCC(=O)N3)oc2c1 (centres unmarked) [Compound 23, [1-Benzyl-2-hydroxy-3-(isobutyl-{2-[(5-oxo-pyrrolidine-2-carbonyl)-amino]-benzooxazole-6-sulfonyl}-amino)-propyl]-carbamic acid thiazol-5-yl methyl ester] | – | 4.49 to 5.00
13 | CC(C)CN(CC(O)C(Cc1ccccc1)NC(=O)OCc1cncs1)S(=O)(=O)c1ccc2nc(NC(=O)C3CCC(=O)N3)oc2c1 (centres unmarked) [Compound 24, [1-Benzyl-2-hydroxy-3-(isobutyl-{2-[(5-oxo-pyrrolidine-2-carbonyl)-amino]-benzooxazole-6-sulfonyl}-amino)-propyl]-carbamic acid thiazol-5-yl methyl ester] | – | 5.00 to 5.70
14 | CC(C)CN(CC(O)C(Cc1ccccc1)NC(=O)OCc1cncs1)S(=O)(=O)c1ccc2nc(NC(=O)c3ccoc3)oc2c1 (centres unmarked) [Compound 25, [1-Benzyl-3-({2-[(furan-3-carbonyl)-amino]-benzooxazole-6-sulfonyl}-isobutyl-amino)-2-hydroxy-propyl]-carbamic acid thiazol-5-ylmethyl ester] | > 5.70 | –
15 | CC(C)CN(CC(O)C(Cc1ccccc1)NC(=O)OCc1cncs1)S(=O)(=O)c1ccc2nc(NC(=O)C3CCN(C)CC3)oc2c1 (centres unmarked) [Compound 26, [1-Benzyl-2-hydroxy-3-(isobutyl-{2-[(1-methyl-piperidine-4-carbonyl)-amino]-benzooxazole-6-sulfonyl}-amino)-propyl]-carbamic acid thiazol-5-ylmethyl ester] | 4.49 to 5.00 | –
16 | CC(C)CN(CC(O)C(Cc1ccccc1)NC(=O)OCc1cncs1)S(=O)(=O)c1ccc2nc(NC(=O)c3ccccn3)oc2c1 (centres unmarked) [Compound 27, [1-Benzyl-2-hydroxy-3-(isobutyl-{2-[(pyridine-2-carbonyl)-amino]-benzooxazole-6-sulfonyl}-amino)-propyl]-carbamic acid thiazol-5-ylmethyl ester] | 5.00 to 5.70 | –
17 | CC(C)CN(CC(O)C(Cc1ccccc1)NC(=O)OCc1cnc(Cl)s1)S(=O)(=O)c1ccc2nc(N)oc2c1 (centres unmarked) [Compound 28, {3-[(2-Amino-benzooxazole-6-sulfonyl)-isobutyl-amino]-1-benzyl-2-hydroxy-propyl}-carbamic acid 2-chloro-thiazol-5-ylmethyl ester] | 5.00 to 5.70 | –
18 | CC(C)CN(CC(O)C(Cc1ccccc1)NC(=O)OCc1cncs1)S(=O)(=O)c1ccc2nc(NC(=O)CN(C)C)oc2c1 (centres unmarked) [Compound 29, (1-Benzyl-3-{[2-(2-dimethylamino-acetylamino)-benzo-oxazole-6-sulfonyl]-isobutyl-amino}-2-hydroxy-propyl)-carbamic acid thiazol-5-ylmethyl ester] | 5.00 to 5.70 | –
19 | CC(C)CN(CC(O)C(Cc1ccccc1)NC(=O)OCc1cncs1)S(=O)(=O)c1ccc2nc(N3CCNCC3)oc2c1 (centres unmarked) [Compound 30, {1-Benzyl-2-hydroxy-3-[isobutyl-(2-piperazin-1-yl-benzo-oxazole-6-sulfonyl)-amino]-propyl}-carbamic acid thiazol-5-ylmethyl ester] | 5.00 to 5.70 | –
20 | CC(C)CN(CC(O)C(Cc1ccccc1)NC(=O)OCc1cncs1)S(=O)(=O)c1ccc2nc(N3CCCCC3)oc2c1 (centres unmarked) [Compound 31, {1-Benzyl-2-hydroxy-3-[isobutyl-(2-piperidin-1-yl-benzo-oxazole-6-sulfonyl)-amino]-propyl}-carbamic acid thiazol-5-ylmethyl ester] | 5.00 to 5.70 | –
